Results as given in paper PMC9856672, “SGC-CAMKK2-1: A Chemical Probe for CAMKK2” (Cells, 2023).

What was measured:
[1] = biological target: T1, ABL1(Q252H)-phosphorylated (Homo sapiens, UniProt P00519, Q252H); experiment: KINOMEscan 1 μM, ABL1(Q252H)-phosphorylated; format: binding; conditions: 1000 nM; Entrez ABL1; read-out: Percent Control
T1 construct: purchased Eurofins DiscoverX KINOMEscan
Text: (§1) Supplement cells-12-00287-s001.zip/File S2. KinomeScan data for the CAMKK2 probe and negative control.xlsx, sheet "SGC-CAMKK2-1" | column: Percent Control

[2] = biological target: T2, NIM1 (Homo sapiens, UniProt Q8IY84); experiment: KINOMEscan 1 μM, NIM1; format: binding; conditions: 1000 nM; Entrez MGC42105; read-out: Percent Control
T2 construct: purchased Eurofins DiscoverX KINOMEscan
Text: as §1

[3] = biological target: T3, EPHA7 (Homo sapiens, UniProt Q15375); experiment: KINOMEscan 1 μM, EPHA7; format: binding; conditions: 1000 nM; Entrez EPHA7; read-out: Percent Control
T3 construct: purchased Eurofins DiscoverX KINOMEscan
Text: as §1

[4] = biological target: T4, CSNK1G3 (Homo sapiens, UniProt Q9Y6M4); experiment: KINOMEscan 1 μM, CSNK1G3; format: binding; conditions: 1000 nM; Entrez CSNK1G3; read-out: Percent Control
T4 construct: purchased Eurofins DiscoverX KINOMEscan
Text: as §1

[5] = biological target: T5, ABL1(Y253F)-phosphorylated (Homo sapiens, UniProt P00519, Y253F); experiment: KINOMEscan 1 μM, ABL1(Y253F)-phosphorylated; format: binding; conditions: 1000 nM; Entrez ABL1; read-out: Percent Control
T5 construct: purchased Eurofins DiscoverX KINOMEscan
Text: as §1

[6] = biological target: T6, SRMS (Homo sapiens, UniProt Q9H3Y6); experiment: DiscoverX KINOMEscan binding assay at 1 μM, SRMS; conditions: Compound Concentration 1000 nM, read-out: Percent Control
T6 construct: purchased Eurofins DiscoverX KINOMEscan
Text: as §1

[7] = biological target: T7, NEK3 (Homo sapiens, UniProt P51956); experiment: KINOMEscan 1 μM, NEK3; format: binding; conditions: 1000 nM; Entrez NEK3; read-out: Percent Control
T7 construct: purchased Eurofins DiscoverX KINOMEscan
Text: as §1

[8] = biological target: T8, NIK (Homo sapiens, UniProt Q99558); experiment: KINOMEscan 1 μM, NIK; format: binding; conditions: 1000 nM; Entrez MAP3K14; read-out: Percent Control
T8 construct: purchased Eurofins DiscoverX KINOMEscan
Text: as §1

[9] = biological target: T9, BMPR2 (Homo sapiens, UniProt Q13873); experiment: KINOMEscan 1 μM, BMPR2; format: binding; conditions: 1000 nM; Entrez BMPR2; read-out: Percent Control
T9 construct: purchased Eurofins DiscoverX KINOMEscan
Text: as §1

[10] = biological target: T10, ADCK4 (Homo sapiens, UniProt Q96D53); experiment: KINOMEscan 1 μM, ADCK4; format: binding; conditions: 1000 nM; Entrez ADCK4; read-out: Percent Control
T10 construct: purchased Eurofins DiscoverX KINOMEscan
Text: as §1

[11] = biological target: T11, BMPR1B (Homo sapiens, UniProt O00238); experiment: KINOMEscan 1 μM, BMPR1B; format: binding; conditions: 1000 nM; Entrez BMPR1B; read-out: Percent Control
T11 construct: purchased Eurofins DiscoverX KINOMEscan
Text: as §1

[12] = biological target: T12, CAMK2B (Homo sapiens, UniProt Q13554); experiment: KINOMEscan 1 μM, CAMK2B; format: binding; conditions: 1000 nM; Entrez CAMK2B; read-out: Percent Control
T12 construct: purchased Eurofins DiscoverX KINOMEscan
Text: as §1

[13] = biological target: T13, MUSK (Homo sapiens, UniProt O15146); experiment: KINOMEscan 1 μM, MUSK; format: binding; conditions: 1000 nM; Entrez MUSK; read-out: Percent Control
T13 construct: purchased Eurofins DiscoverX KINOMEscan
Text: as §1

[14] = biological target: T14, WNK4 (Homo sapiens, UniProt Q96J92); experiment: DiscoverX KINOMEscan binding assay at 1 μM, WNK4; conditions: Compound Concentration 1000 nM, read-out: Percent Control
T14 construct: purchased Eurofins DiscoverX KINOMEscan
Text: as §1

[15] = biological target: T15, TXK (Homo sapiens, UniProt P42681); experiment: DiscoverX KINOMEscan binding assay at 1 μM, TXK; conditions: Compound Concentration 1000 nM, read-out: Percent Control
T15 construct: purchased Eurofins DiscoverX KINOMEscan
Text: as §1

[16] = biological target: T16, PRKG1 (Homo sapiens, UniProt Q13976); experiment: DiscoverX KINOMEscan binding assay at 1 μM, PRKG1; conditions: Compound Concentration 1000 nM, read-out: Percent Control
T16 construct: purchased Eurofins DiscoverX KINOMEscan
Text: as §1

[17] = biological target: T17, PRKCE (Homo sapiens, UniProt Q02156); experiment: KINOMEscan 1 μM, PRKCE; format: binding; conditions: 1000 nM; Entrez PRKCE; read-out: Percent Control
T17 construct: purchased Eurofins DiscoverX KINOMEscan
Text: as §1

[18] = biological target: T18, ROS1 (Homo sapiens, UniProt P08922); experiment: KINOMEscan binding assay at 1 μM, ROS1; conditions: Compound Concentration 1000 nM; read-out: Percent Control
T18 construct: purchased Eurofins DiscoverX KINOMEscan
Text: (§2) Supplement cells-12-00287-s001.zip/File S2. KinomeScan data for the CAMKK2 probe and negative control.xlsx, sheet "SGC-CAMKK2-1N" | column: Percent Control

[19] = biological target: T19, WEE1 (Homo sapiens, UniProt P30291); experiment: KINOMEscan at 1 μM, WEE1; format: binding; conditions: 1000 nM, read-out: Percent Control
T19 construct: purchased Eurofins DiscoverX KINOMEscan
Text: as §2

[20] = biological target: T20, TSSK1B (Homo sapiens, UniProt Q9BXA7); experiment: KINOMEscan at 1 μM, TSSK1B; format: binding; conditions: 1000 nM, read-out: Percent Control
T20 construct: purchased Eurofins DiscoverX KINOMEscan
Text: as §2

[21] = biological target: T21, DAPK3 (Homo sapiens, UniProt O43293); experiment: KINOMEscan at 1 μM, DAPK3; format: binding; conditions: 1000 nM, read-out: Percent Control
T21 construct: purchased Eurofins DiscoverX KINOMEscan
Text: as §2

[22] = biological target: T22, PCTK1 (Homo sapiens, UniProt Q00536); experiment: KINOMEscan at 1 μM, PCTK1; format: binding; conditions: 1000 nM, read-out: Percent Control
T22 construct: purchased Eurofins DiscoverX KINOMEscan
Text: as §2

[23] = biological target: T23, LCK (Homo sapiens, UniProt P06239); experiment: KINOMEscan binding assay at 1 μM, LCK; conditions: Compound Concentration 1000 nM; read-out: Percent Control
T23 construct: purchased Eurofins DiscoverX KINOMEscan
Text: as §2

[24] = biological target: T3, EPHA7; experiment: KINOMEscan binding assay at 1 μM, EPHA7; conditions: Compound Concentration 1000 nM; read-out: Percent Control
Text: as §2

[25] = biological target: T24, EPHA5 (Homo sapiens, UniProt P54756); experiment: KINOMEscan binding assay at 1 μM, EPHA5; conditions: Compound Concentration 1000 nM; read-out: Percent Control
T24 construct: purchased Eurofins DiscoverX KINOMEscan
Text: as §2

[26] = biological target: T25, RPS6KA5(Kin.Dom.2-C-terminal) (Homo sapiens, UniProt O75582); experiment: KINOMEscan at 1 μM, RPS6KA5(Kin.Dom.2-C-terminal); format: binding; conditions: 1000 nM, read-out: Percent Control
T25 construct: RPS6KA5(Kin.Dom.2-C-terminal); purchased Eurofins DiscoverX KINOMEscan
Text: as §2

[27] = biological target: T26, AXL (Homo sapiens, UniProt P30530); experiment: KINOMEscan at 1 μM, AXL; format: binding; conditions: 1000 nM, read-out: Percent Control
T26 construct: purchased Eurofins DiscoverX KINOMEscan
Text: as §2

[28] = biological target: T27, MEK4 (Homo sapiens, UniProt P45985); experiment: KINOMEscan at 1 μM, MEK4; format: binding; conditions: 1000 nM, read-out: Percent Control
T27 construct: purchased Eurofins DiscoverX KINOMEscan
Text: as §2

[29] = biological target: T28, MKNK1 (Homo sapiens, UniProt Q9BUB5); experiment: KINOMEscan at 1 μM, MKNK1; format: binding; conditions: 1000 nM, read-out: Percent Control
T28 construct: purchased Eurofins DiscoverX KINOMEscan
Text: as §2

[30] = biological target: T29, KIT(D816H) (Homo sapiens, UniProt P10721, D816H); experiment: KINOMEscan at 1 μM, KIT(D816H); format: binding; conditions: 1000 nM, read-out: Percent Control
T29 construct: purchased Eurofins DiscoverX KINOMEscan
Text: as §2

[31] = biological target: T30, OSR1 (Homo sapiens, UniProt O95747); experiment: KINOMEscan at 1 μM, OSR1; format: binding; conditions: 1000 nM, read-out: Percent Control
T30 construct: purchased Eurofins DiscoverX KINOMEscan
Text: as §2

[32] = biological target: T31, PKAC-beta (Homo sapiens, UniProt P22694); experiment: KINOMEscan binding assay at 1 μM, PKAC-beta; conditions: Compound Concentration 1000 nM; read-out: Percent Control
T31 construct: purchased Eurofins DiscoverX KINOMEscan
Text: as §2

[33] = biological target: T32, STK39 (Homo sapiens, UniProt Q9UEW8); experiment: KINOMEscan at 1 μM, STK39; format: binding; conditions: 1000 nM, read-out: Percent Control
T32 construct: purchased Eurofins DiscoverX KINOMEscan
Text: as §2

[34] = biological target: T33, TNK2 (Homo sapiens, UniProt Q07912); experiment: KINOMEscan at 1 μM, TNK2; format: binding; conditions: 1000 nM, read-out: Percent Control
T33 construct: purchased Eurofins DiscoverX KINOMEscan
Text: as §2

[35] = biological target: T34, S6K1 (Homo sapiens, UniProt P23443); experiment: KINOMEscan at 1 μM, S6K1; format: binding; conditions: 1000 nM, read-out: Percent Control
T34 construct: purchased Eurofins DiscoverX KINOMEscan
Text: as §2

T3 sequence (Q15375 28-998): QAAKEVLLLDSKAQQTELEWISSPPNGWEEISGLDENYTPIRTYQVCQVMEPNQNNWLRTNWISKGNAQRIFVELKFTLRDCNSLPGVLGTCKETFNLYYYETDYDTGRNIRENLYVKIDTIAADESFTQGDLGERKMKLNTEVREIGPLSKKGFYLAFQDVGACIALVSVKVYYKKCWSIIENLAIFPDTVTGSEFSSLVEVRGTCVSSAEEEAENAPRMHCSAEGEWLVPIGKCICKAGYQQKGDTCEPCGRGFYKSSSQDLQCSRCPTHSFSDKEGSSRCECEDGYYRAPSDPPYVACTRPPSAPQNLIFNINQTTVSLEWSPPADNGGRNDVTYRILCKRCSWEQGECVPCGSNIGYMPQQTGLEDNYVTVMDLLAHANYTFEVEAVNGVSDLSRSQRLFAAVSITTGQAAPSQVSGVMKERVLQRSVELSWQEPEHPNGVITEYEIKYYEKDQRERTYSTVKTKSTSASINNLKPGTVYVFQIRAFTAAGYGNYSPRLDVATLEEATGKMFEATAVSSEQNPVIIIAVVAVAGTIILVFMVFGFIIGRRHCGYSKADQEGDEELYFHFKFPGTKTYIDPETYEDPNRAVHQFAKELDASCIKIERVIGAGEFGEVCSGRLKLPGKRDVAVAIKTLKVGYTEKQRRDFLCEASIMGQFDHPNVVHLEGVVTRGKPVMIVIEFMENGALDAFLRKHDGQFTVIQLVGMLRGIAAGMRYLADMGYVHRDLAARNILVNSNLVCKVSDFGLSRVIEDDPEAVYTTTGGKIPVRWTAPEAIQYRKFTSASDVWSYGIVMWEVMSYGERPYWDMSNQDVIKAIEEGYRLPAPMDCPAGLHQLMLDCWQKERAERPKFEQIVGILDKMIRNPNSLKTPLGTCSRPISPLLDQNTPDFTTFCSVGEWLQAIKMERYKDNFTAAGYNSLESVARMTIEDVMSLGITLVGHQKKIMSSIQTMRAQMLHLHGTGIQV
T19 sequence (P30291 whole entry): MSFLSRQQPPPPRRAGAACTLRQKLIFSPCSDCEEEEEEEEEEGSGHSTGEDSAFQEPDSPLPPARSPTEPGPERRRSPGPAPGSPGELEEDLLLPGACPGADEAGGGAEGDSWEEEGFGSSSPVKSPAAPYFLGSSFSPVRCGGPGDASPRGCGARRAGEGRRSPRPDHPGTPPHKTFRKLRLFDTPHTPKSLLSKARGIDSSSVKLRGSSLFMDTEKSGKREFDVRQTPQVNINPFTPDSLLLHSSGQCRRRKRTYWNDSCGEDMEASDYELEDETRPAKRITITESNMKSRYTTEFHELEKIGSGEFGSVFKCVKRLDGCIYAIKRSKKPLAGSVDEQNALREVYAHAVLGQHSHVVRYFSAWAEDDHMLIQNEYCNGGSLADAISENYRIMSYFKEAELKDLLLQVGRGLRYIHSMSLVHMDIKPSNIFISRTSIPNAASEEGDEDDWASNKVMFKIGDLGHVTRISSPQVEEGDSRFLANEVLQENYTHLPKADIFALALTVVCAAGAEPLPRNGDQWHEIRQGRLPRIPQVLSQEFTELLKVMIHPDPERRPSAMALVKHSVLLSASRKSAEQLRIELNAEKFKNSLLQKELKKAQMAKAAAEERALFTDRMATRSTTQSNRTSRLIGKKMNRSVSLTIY
T16 sequence (Q13976 whole entry): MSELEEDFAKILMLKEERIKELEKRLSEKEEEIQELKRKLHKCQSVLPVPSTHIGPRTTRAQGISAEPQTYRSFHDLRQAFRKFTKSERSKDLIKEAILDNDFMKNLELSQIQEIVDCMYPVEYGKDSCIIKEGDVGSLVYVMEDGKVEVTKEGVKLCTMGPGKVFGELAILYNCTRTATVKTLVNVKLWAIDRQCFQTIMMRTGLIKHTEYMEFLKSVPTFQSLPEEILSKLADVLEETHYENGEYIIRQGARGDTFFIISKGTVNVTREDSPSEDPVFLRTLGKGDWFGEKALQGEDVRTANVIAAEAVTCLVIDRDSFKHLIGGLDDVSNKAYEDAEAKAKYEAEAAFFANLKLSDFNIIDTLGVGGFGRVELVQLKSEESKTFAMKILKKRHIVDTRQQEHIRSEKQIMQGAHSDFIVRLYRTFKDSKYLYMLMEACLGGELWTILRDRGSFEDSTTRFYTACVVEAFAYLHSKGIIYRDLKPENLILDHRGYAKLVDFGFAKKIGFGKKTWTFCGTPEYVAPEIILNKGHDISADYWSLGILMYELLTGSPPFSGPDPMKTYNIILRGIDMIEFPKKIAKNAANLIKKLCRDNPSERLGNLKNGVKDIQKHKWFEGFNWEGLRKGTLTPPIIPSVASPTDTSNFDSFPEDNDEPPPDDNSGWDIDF
T27 sequence (P45985 whole entry): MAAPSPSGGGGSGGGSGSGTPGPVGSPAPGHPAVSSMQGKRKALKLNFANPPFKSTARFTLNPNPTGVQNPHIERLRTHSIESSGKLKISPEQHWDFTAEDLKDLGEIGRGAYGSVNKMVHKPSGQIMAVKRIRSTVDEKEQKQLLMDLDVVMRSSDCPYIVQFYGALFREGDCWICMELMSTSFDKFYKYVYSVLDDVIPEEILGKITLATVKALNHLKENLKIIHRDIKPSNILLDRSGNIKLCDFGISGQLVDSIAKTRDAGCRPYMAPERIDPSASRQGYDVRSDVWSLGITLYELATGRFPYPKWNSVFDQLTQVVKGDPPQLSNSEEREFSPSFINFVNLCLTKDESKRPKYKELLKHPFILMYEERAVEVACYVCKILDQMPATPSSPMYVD
T15 sequence (P42681 whole entry): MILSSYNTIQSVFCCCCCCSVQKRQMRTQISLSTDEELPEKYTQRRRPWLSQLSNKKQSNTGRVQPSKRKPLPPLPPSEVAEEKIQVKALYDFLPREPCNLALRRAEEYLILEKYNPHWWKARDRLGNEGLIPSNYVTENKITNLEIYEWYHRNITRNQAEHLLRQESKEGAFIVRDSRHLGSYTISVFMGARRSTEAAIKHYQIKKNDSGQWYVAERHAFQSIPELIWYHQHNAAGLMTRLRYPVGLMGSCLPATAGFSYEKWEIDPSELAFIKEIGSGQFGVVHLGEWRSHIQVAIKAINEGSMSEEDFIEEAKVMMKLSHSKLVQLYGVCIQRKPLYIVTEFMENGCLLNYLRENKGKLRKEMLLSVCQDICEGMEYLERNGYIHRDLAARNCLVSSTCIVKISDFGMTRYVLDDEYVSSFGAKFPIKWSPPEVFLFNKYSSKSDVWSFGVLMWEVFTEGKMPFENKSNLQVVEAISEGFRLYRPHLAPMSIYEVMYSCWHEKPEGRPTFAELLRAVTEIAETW
T20 sequence (Q9BXA7 whole entry): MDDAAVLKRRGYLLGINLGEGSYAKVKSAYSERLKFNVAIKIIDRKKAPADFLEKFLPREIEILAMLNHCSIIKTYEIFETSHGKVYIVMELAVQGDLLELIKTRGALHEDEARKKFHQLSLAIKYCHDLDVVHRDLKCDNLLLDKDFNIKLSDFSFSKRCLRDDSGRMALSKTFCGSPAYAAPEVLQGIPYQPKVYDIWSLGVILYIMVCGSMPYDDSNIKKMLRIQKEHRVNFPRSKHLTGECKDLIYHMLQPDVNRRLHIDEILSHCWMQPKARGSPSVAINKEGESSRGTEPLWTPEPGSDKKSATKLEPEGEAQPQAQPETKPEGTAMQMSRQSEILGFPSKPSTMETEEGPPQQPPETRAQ
T6 sequence (Q9H3Y6 whole entry): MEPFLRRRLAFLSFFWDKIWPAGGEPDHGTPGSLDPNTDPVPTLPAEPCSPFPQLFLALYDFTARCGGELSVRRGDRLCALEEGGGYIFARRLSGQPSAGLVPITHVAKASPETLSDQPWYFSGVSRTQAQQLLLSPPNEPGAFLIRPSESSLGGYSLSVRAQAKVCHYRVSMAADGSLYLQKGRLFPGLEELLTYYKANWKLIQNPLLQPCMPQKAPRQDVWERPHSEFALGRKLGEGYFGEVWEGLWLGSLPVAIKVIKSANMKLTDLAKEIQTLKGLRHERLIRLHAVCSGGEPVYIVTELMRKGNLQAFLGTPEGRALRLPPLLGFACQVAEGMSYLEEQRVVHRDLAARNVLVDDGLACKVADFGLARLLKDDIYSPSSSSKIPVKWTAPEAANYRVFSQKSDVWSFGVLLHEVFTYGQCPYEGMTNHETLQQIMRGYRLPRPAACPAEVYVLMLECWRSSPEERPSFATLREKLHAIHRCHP
T8 sequence (Q99558 whole entry): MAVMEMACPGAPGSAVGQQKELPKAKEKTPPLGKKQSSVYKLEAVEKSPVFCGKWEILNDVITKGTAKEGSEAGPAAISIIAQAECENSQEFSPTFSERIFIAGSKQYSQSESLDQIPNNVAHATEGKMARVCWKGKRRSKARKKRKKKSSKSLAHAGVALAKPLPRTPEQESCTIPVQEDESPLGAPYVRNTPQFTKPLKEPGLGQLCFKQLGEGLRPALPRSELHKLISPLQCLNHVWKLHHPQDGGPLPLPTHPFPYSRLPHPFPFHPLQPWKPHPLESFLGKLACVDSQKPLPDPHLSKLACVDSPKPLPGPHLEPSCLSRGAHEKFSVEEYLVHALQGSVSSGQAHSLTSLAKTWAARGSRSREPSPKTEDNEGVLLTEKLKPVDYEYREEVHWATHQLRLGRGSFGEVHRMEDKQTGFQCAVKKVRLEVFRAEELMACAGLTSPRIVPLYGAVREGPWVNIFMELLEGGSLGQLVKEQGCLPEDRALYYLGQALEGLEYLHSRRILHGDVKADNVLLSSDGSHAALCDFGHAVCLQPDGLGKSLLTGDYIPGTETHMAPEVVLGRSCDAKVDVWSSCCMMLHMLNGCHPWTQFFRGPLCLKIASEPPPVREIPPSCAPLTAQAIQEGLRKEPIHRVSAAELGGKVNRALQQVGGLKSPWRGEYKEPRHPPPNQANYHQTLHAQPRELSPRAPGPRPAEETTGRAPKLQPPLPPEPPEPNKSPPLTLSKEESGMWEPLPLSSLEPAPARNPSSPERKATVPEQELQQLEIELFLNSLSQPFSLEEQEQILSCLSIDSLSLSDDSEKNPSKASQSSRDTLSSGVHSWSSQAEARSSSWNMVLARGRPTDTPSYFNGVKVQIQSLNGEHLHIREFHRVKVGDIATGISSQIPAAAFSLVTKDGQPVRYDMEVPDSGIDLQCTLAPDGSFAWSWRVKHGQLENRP

Cc1cccc(-c2cnc3occ(-c4ccc(C(=O)O)c(C5CCCC5)c4)c3c2)c1 [SGC-CAMKK2-1 (YL-36)]
remaining binding at 1 µM [1]: 96%
remaining binding at 1 µM [2]: 100%
remaining binding at 1 µM [3]: 100%
remaining binding at 1 µM [4]: 99%
remaining binding at 1 µM [5]: 73%
remaining binding at 1 µM [6]: 100%
remaining binding at 1 µM [7]: 100%
remaining binding at 1 µM [8]: 89%
remaining binding at 1 µM [9]: 100%
remaining binding at 1 µM [10]: 100%
remaining binding at 1 µM [11]: 100%
remaining binding at 1 µM [12]: 86%
remaining binding at 1 µM [13]: 84%
remaining binding at 1 µM [14]: 100%
remaining binding at 1 µM [15]: 100%
remaining binding at 1 µM [16]: 100%
remaining binding at 1 µM [17]: 90%

O=C(O)c1ccc(-c2coc3ncc(-c4ccccc4)cc23)cc1Cl [SGC-CAMKK2-1N (UNC-YL-83)]
remaining binding at 1 µM [18]: 100%
remaining binding at 1 µM [19]: 84%
remaining binding at 1 µM [20]: 83%
remaining binding at 1 µM [21]: 71%
remaining binding at 1 µM [22]: 83%
remaining binding at 1 µM [23]: 100%
remaining binding at 1 µM [24]: 100%
remaining binding at 1 µM [25]: 100%
remaining binding at 1 µM [26]: 82%
remaining binding at 1 µM [27]: 94%
remaining binding at 1 µM [28]: 81%
remaining binding at 1 µM [29]: 49%
remaining binding at 1 µM [30]: 57%
remaining binding at 1 µM [31]: 64%
remaining binding at 1 µM [32]: 100%
remaining binding at 1 µM [33]: 77%
remaining binding at 1 µM [34]: 94%
remaining binding at 1 µM [35]: 76%
